Experimental data reported in patent US20030212034A1, “Method of treatment of obesity and paralyzed muscle and ergogenic aids” (priority 2002, published 2003).

Assays:
Format in all cases: in vivo, rat
[1] = ZMP concentration in muscle after AICAR injection; settings: for ZMP concentration: one hour after AICAR injection in rats given daily injections for 4 weeks
Experimental: Resuspended ammonium sulfate precipitates of tissue homogenates were analyzed for AMPK activity and acetyl-CoA carboxylase activity as described previously. Li, B., et al. J. Biol. Chem. 274:17534-17540, 1999; Winder, W. W., & D. G. Hardie Am. J. Physiol. 270:E299-E304, 1996. […] ACC activity at 0.2 mM citrate provides some indication of the in vivo activity of AMPK, since ACC is a target for phosphorylation of AMPK. ACC activity has previously been reported to decrease in response to phosphorylation by AMPK. Winder, W. W., & D. G. Hardie Am. J. Physiol. 270:E299-E304, 1996. The acute experiment was also repeated on rats treated with AICAR or saline for 4 weeks to see if the responses of AMPK and ACC to AICAR persisted for the entire treatment period. In both experiments ATP and CP were measured on neutralized perchloric acid extracts of muscle.
After obtaining results on blunted acute response to an AICAR injection on AMPK in chronically treated rats, an additional experiment was done to determine if intermittent treatment of rats with AICAR would influence the extent of the increase in citrate synthase. This experiment was also of shorter duration to minimize down regulation that appeared to occur with prolonged treatment. Rats were injected for three days (1 mg/g) followed by two days of no treatment. They were then injected for five days, followed by another two days with no treatment and then for three additional days before killing 20-24 hours following the last injection. Rats were anesthetized and tissues were collected and frozen as before. Analytical methods. Muscles from rats killed 1 h after injection of AICAR or saline were analyzed for AMPK, acetyl-CoA carboxylase (ACC) at 0.2 mM citrate, ATP and CP and ZMP. Li, B., et al. J. Biol. Chem. 274:17534-17540, 1999; Winder, W. W., & D. G. Hardie Am. J. Physiol. 270:E299-E304, 1996; Heinz, F., & H. Weisser. Creatine phosphate. In: Methods of Enzymatic Analysis, edited by H. U. Bergmeyer. New York: Academic, 1983, p. 507-514.

GLUT4 = GLUT4 western blot in 3-day denervated and contralateral muscles after AICAR injections
Experimental: (§1) Rats were anesthetized with ether and the sciatic nerve of the right hindlimb was severed. The left hindlimb was sham operated to serve as a control. Both skin wounds were closed with a metal clips. The rats used for the acute study were also implanted with a jugular catheter which was exteriorized on the back of the neck at the time of denervation for rapid administration of anesthesia.
Muscle was ground to a powder under liquid nitrogen and homogenized ([…]) in HEPES buffer [25 mM HEPES, 1 mM EDTA, 1 mM benzamadine, 1 mM 4-(2-aminoethyl)-benzene+sulfonyl fluoride, 1 μM leupeptin, 1 μM antitrypsin, 1 μM aprotinin, pH 7.5]. This homogenate was then diluted with water and Laemmli's buffer (1 mL homogenate:2 mL water: 1 mL buffer) immediately before loading. 20 μL of this homogenate were then loaded onto a 10% SDS-PAGE mini gel (Tris-HCl ready gels, BioRad, Hercules, Calif.). Samples were subjected to electrophoresis at 200 V for 45 minutes. Proteins were transferred from gel to nitrocellulose membrane at 100V for 50 minutes. Membranes were blocked in 5% non-fat milk (BioRad, Hercules, Calif.) in PBST (139 mM NaCl, 2.7 mM KH2PO4, 9.9 mM Na2HPO4, and 0.05% Tween-20) and were then left overnight with GLUT4 polyclonal antibody (Biogenesis, Kingston, N.H.) in 5% dried milk solution (1:5000 dilution). After washing twice in PBST, and twice in PBS (139 mM NaCl, 2.7 mM KH2PO4, 9.9 mM Na2HPO4), the membranes were exposed to horseradish peroxidase-conjugated donkey anti-rabbit IgG (Amersham Life Sciences, Arlington Heights, Ill.) for 1 h. at room temperature. After again washing twice with PBST and twice with PBS, the membranes were incubated in enhanced chemoluminescence-detection reagent and then visualized on enhanced chemoluminescence hyperfilm (Amersham Life Sciences). Relative amounts of GLUT4 were then quantified using a Hewlett Packard Scan Jet 6200C and SigmaGel software (SPSS, Chicago, Ill.). Western blot data are expressed as arbitrary units where individual values were divided by the mean basal GLUT4 value (sham operated leg/injected with 0.9%/NaCl solution).
(§2) Rats were injected either with AICAR (1 mg in 0.9% NaCl/g body weight) or a 0.9% NaCl solution ˜0, ˜24, and ˜48 hours after denervation and were then sacrificed ˜72 hours after denervation without injection. Rats were anesthetized with sodium pentobarbital (4.8 mg/100 g. body weight), soleus and gastrocnemius muscles from both sham and denervated sides were extracted, and muscles were quick frozen in liquid nitrogen and stored for analysis.
Rats were denervated as described above between 8:00 and 10:00 and were immediately injection with either 0.9% NaCl solution (n=4), 0.1 mg AICAR in 0.9% NaCl/g body weight (n=4), 0.5 mg AICAR in 0.9% NaCl/g body weight (n=3), or 1 mg AICAR in 0.9% NaCl/g body weight (n=4). Rats of each treatment group were subsequently injected with the respective AICAR solutions at ˜24 and ˜48 hours after denervation. Rats were killed ˜72 hours after denervation without an AICAR injection and muscles were collected as described above.

[2] = Muscle weights in 3-day denervated and contralateral control muscles; settings: same in both treatment groups
Experimental: as §1, §2

[3] = system: AMP-activated protein kinase (AMPK); assay: AMPK activity in denervated and contralateral muscles after acute AICAR injection; settings: acute AICAR 1 mg/g
Text: as §1
Rats were denervated between 8:30 a.m. and 10:30 a.m. and were then given 25 g of food. Rats were handled twice during the day to accustom them to being handled. The rats were given a single subcutaneous injection 24 hours. after surgery of either AICAR (1 mg/g body weight) in sterile 0.9% NaCl or with just 0.9% NaCl, and were subsequently anesthetized intravenously. Soleus and gastrocnemius muscles from both sham and denervated sides were extracted and quick frozen in liquid nitrogen for analysis. AMPK activity and acetyl-Co A carboxylase (ACC) activity were determined as previously described. Winder W W & Hardie D G, Am J. Physiol 270 (Endocrinol Metab 33): E299-E304, 1996. Because this analysis is done on homogenates prepared by ammonium sulfate precipitation, only those effects on AMPK activity modified by phosphorylation are measured. […] Because ACC is a target for phosphorylation by AMPK, and because ACC activity has been reported to decrease in response to phosphorylation by AMPK, ACC activity is measured to give an indication of the in vivo actions of AMPK.

NC(=O)c1ncn([C@@H]2O[C@H](CO)[C@@H](O)[C@H]2O)c1N [AICAR, 5-aminoimidazole-4-carboxamide-1-β-D-ribofuranoside]
time course of ZMP in muscle after subcutaneous injection of AICAR ([1]; increased 15 minutes following injection): remains elevated for at least two hours
ZMP concentration ([1]; red quadriceps): 0.94 ± 0.08 µmol/g
ZMP concentration ([1]; soleus muscle): 1.15 ± 0.07 µmol/g
ZMP concentration ([1]; white quadriceps): 0.42 ± 0.04 µmol/g
GLUT4 content, percent intensity of saline-treated contralateral innervated controls (GLUT4; contralateral innervated gastrocnemius, AICAR 1 mg/g for 3 days): 130.1%
GLUT4 content, percent intensity of saline-treated contralateral innervated controls (GLUT4; denervated gastrocnemius, AICAR 1 mg/g for 3 days, saline denervated 60.1%): 106.6%
dose dependent response of GLUT4 vs saline-treated denervated gastrocnemius (GLUT4; denervated gastrocnemius, doses 0.1, 0.5, 1 mg/g, result for the 1 mg/g dose, FIG. 11): only dose that significantly raises GLUT4 content
increase of GLUT4 vs. saline-treated denervated gastrocnemius controls (GLUT4; denervated gastrocnemius, subcutaneous AICAR injections): 80%
GLUT4 content, percent of saline-treated contralateral controls (GLUT4; denervated soleus, AICAR 1 mg/g for 3 days, saline denervated 72.6%, not significant): 85.4%
dose dependent response of GLUT4 vs saline-treated innervated gastrocnemius (GLUT4; innervated gastrocnemius, doses 0.1, 0.5, 1 mg/g, result for the 1 mg/g dose, FIG. 11): only dose that significantly raises GLUT4 content
loss of muscle mass after 3 days of denervation ([2]; gastrocnemius): ~14%
loss of muscle mass after 3 days of denervation ([2]; soleus): ~20%
AMPK activity vs saline-treated contralateral innervated muscles ([3]; contralateral innervated gastrocnemius, FIG. 7): significantly (P<0.05) elevated
AMPK activity vs saline-treated contralateral innervated muscles ([3]; contralateral innervated soleus, FIG. 8): significantly (P<0.05) elevated
AMPK activity vs saline-treated contralateral innervated muscles ([3]; denervated gastrocnemius, FIG. 7): significantly (P<0.05) elevated
